# Reference: patent US20260042764A1, “COMPOSITIONS AND METHODS FOR INHIBITION OF KRAS” (TheRas, Inc., priority 2022, published 2026)
# Columns and labels:
# GP2d cells (KRAS G12D) = test: Cell-based pERK HTRF assay in GP2d cell (Biological Example 2); settings: GP2d (KRAS G12D) cells, pERK HTRF
# Outline: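 Treatment with test compounds lasted one hour in DMEM containing 10% FBS, with DMSO held at 0.25%. Dilution series: 9 points, half-log spacing, highest 1 μM or 100 nM. Lysates were incubated 4–24 h at room temperature with antibody mix, then HTRF was read at 320 nm excitation.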
# [1] = target: T1, Avi-KRAS G12D (1-169) GppNHp/RAF1 RBD-3xFLAG (52-151) (Homo sapiens, UniProt P01116, G12D); test: Raf1-KRAS G12D-GppNHP disruption HTRF assay (Biological Example 1); assay type: binding
# T1 construct: Avi-KRAS G12D (1-169)
# Outline: (§1)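 Compounds were tested for disruption of KRAS–RAF1 RBD binding by HTRF in 50 mM Tris pH 7.5, 100 mM NaCl, 5 mM MgCl2, 0.1% BSA, 0.01% Tween, 10% DMSO. Protein mix was incubated 1 h at room temperature with shaking, then detection reagents added for another 1 h. Activity expressed as percent of DMSO control.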
# [2] = target: T2, Avi-KRAS WT (1-169) GppNHp/RAF1 RBD-3xFLAG (52-151) (Homo sapiens, UniProt P01116); test: Raf1-KRAS WT-GppNHP disruption HTRF assay (Biological Example 1); assay type: binding
# T2 construct: Avi-KRAS WT (1-169)
# Outline: as §1
# SW620 cells (KRAS G12V) = test: Cell-based pERK HTRF assay in SW620 cell (Biological Example 4); settings: pERK HTRF
# Outline: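 SW620 cells were treated for 4 h with compound in a 9-point half-log series from 1 μM top (0.25% DMSO), then lysed. Phospho-ERK was detected by HTRF with d2 and Eu cryptate antibodies after 4–24 h at room temperature, read at 615 nm emission.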
# [3] = target: T3, Avi-KRAS G12V (1-169) GppNHp/RAF1 RBD-3xFLAG (52-151) (Homo sapiens, UniProt P01116, G12V); test: Raf1-KRAS G12V-GppNHP disruption HTRF assay (Biological Example 1); assay type: binding
# T3 construct: Avi-KRAS G12V (1-169)
# Outline: as §1
# [4] = target: T4, Avi-KRAS G12R (1-169) GppNHp/RAF1 RBD-3xFLAG (52-151) (Homo sapiens, UniProt P01116, G12R); test: Raf1-KRAS G12R-GppNHP disruption HTRF assay (Biological Example 1); assay type: binding
# T4 construct: Avi-KRAS G12R (1-169)
# Outline: as §1
# [5] = KRAS G12D, GppNHp-loaded, class symbols
# [6] = KRAS WT, GppNHp-loaded, class symbols
# [7] = Homo sapiens, SW-620, SW620 (KRAS G12V) cells, class symbols
# [8] = KRAS G12V, GppNHp-loaded, class symbols
# [9] = KRAS G12R, GppNHp-loaded, class symbols
# [10] = KRAS G12D, GppNHp-loaded, Table 11
# [11] = KRAS WT, GppNHp-loaded, Table 11
# [12] = KRAS G12V, GppNHp-loaded, Table 11
# [13] = KRAS G12R, GppNHp-loaded, Table 11
# [14] = Homo sapiens, SW-620, SW620 (KRAS G12V) cells
# T4 sequence (P01116 1-169 isoform P01116-2 G12R): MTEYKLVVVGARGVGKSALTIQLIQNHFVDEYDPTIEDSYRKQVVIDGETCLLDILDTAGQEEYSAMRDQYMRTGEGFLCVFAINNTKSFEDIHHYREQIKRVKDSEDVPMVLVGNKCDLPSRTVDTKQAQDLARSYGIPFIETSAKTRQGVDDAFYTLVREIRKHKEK
# T2 sequence (P01116 1-169 isoform P01116-2): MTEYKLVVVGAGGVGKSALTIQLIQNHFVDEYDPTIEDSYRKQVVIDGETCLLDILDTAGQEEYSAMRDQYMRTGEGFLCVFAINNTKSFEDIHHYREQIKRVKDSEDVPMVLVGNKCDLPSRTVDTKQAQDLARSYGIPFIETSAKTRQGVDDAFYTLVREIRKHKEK
# T3 sequence (P01116 1-169 isoform P01116-2 G12V): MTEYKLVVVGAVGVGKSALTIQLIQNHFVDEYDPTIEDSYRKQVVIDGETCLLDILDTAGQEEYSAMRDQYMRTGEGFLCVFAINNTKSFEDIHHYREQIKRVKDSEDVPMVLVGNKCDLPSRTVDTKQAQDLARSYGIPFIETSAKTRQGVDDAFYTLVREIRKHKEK
# T1 sequence (P01116 1-169 isoform P01116-2 G12D): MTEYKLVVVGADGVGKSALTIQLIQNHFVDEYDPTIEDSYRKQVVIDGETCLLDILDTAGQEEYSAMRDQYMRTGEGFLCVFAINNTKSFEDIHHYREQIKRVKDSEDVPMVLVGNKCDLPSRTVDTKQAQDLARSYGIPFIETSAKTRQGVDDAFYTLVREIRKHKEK
SMILES,IC50 (GP2d cells (KRAS G12D); GP2d),IC50 (SW620 cells (KRAS G12V); [14]),IC50 ([1]; KRAS G12D-GppNHp/RAF1 RBD HTRF),IC50 ([2]; KRAS WT-GppNHp/RAF1 RBD HTRF),IC50 ([3]; KRAS G12V-GppNHp/RAF1 RBD HTRF),IC50 ([4]; KRAS G12R-GppNHp/RAF1 RBD HTRF),also measured
"CCN(c1nc(OC[C@@]23CCCN2C[C@H](F)C3)nc2c(F)c(-c3ccc(F)c4sc(N)c(C#N)c34)c(C(F)(F)F)cc12)[C@H]1CCN(C(=O)[C@@H]2CCCCO2)C1 (atropisomer, axis not shown) [Compound 769]",–,–,–,–,–,–,"IC50 (GP2d cells (KRAS G12D); GP2d, class symbols): < 100 nM; IC50 [1, 5]: < 100 nM; IC50 [2, 6]: < 100 nM; IC50 (SW620 cells (KRAS G12V); [7]): < 100 nM; IC50 [3, 8]: < 100 nM; IC50 [4, 9]: < 100 nM"
"CC(=O)N1CC[C@H](N(C)c2nc(OC[C@@]34CCCN3C[C@H](F)C4)nc3c(F)c(-c4ccc(F)c5sc(N)c(C#N)c45)c(C(F)(F)F)cc23)[C@@H]1C (single isomer, unassigned) [Compound 194]",–,–,–,–,–,–,"IC50 (GP2d cells (KRAS G12D)): > 1000 nM; IC50 [1, 10]: > 10000 nM; IC50 [2, 11]: > 10000 nM; IC50 (SW620 cells (KRAS G12V); SW620 (KRAS G12V) cells): > 1000 nM; IC50 [3, 12]: > 10000 nM; IC50 [4, 13]: > 10000 nM"
C[C@]1(O)CCCN(c2nc(OC[C@@]34CCCN3C[C@H](F)C4)nc3c(F)c(-c4ccc(F)c5sc(N)c(C#N)c45)c(C(F)(F)F)cc23)C1 [Compound 241],< 100 nM,< 100 nM,–,–,–,–,"IC50 [1, 10]: 100 to 1000 nM; IC50 [2, 11]: 100 to 1000 nM; IC50 [3, 12]: 100 to 1000 nM; IC50 [4, 13]: 100 to 1000 nM"
CC(=O)N1CCN(c2nc(OC[C@@]34CCCN3C[C@H](F)C4)nc3c(F)c(-c4ccc(F)c5sc(N)c(C#N)c45)c(C(F)(F)F)cc23)C[C@H]1C [Compound 229],< 100 nM,< 100 nM,–,–,–,–,"IC50 [1, 10]: 100 to 1000 nM; IC50 [2, 11]: 1000 to 10000 nM; IC50 [3, 12]: 1000 to 10000 nM; IC50 [4, 13]: 1000 to 10000 nM"
N#Cc1c(N)sc2c(F)ccc(-c3c(Cl)cc4c(N5C[C@H]6C[C@@H]5CO6)nc(OC[C@@]56CCCN5C[C@H](F)C6)nc4c3F)c12 [Compound 364],< 100 nM,< 100 nM,100 to 1000 nM,1000 to 10000 nM,1000 to 10000 nM,1000 to 10000 nM,–
CN(c1nc(OC[C@@]23CCCN2C[C@H](F)C3)nc2c(F)c(-c3ccc(F)c4sc(N)c(C#N)c34)c(C(F)(F)F)cc12)[C@@H]1CNC(=O)C1 [Compound 340],< 100 nM,100 to 1000 nM,100 to 1000 nM,100 to 1000 nM,100 to 1000 nM,100 to 1000 nM,–
C[C@H]1CS(=O)(=O)CCN1c1nc(OC[C@@]23CCCN2C[C@H](F)C3)nc2c(F)c(-c3ccc(F)c4sc(N)c(C#N)c34)c(C(F)(F)F)cc12 [Compound 302],< 100 nM,< 100 nM,100 to 1000 nM,100 to 1000 nM,1000 to 10000 nM,100 to 1000 nM,–
CC(C)C(=O)N1CC[C@@](C)(N(C)c2nc(OC[C@@]34CCCN3C[C@H](F)C4)nc3c(F)c(-c4ccc(F)c5sc(N)c(C#N)c45)c(C(F)(F)F)cc23)[C@H]1C [Compound 345],100 to 1000 nM,100 to 1000 nM,1000 to 10000 nM,1000 to 10000 nM,> 10000 nM,> 10000 nM,–
"CCN(c1nc(OC[C@@]23CCCN2C[C@H](F)C3)nc2c(F)c(-c3ccc(F)c4sc(N)c(C#N)c34)c(C(F)(F)F)cc12)[C@H]1C[C@@H](C)N(C(=O)N2CC(F)C2)C1 (atropisomer, axis not shown) [Compound 782]",–,–,–,–,–,–,"IC50 (GP2d cells (KRAS G12D); GP2d, class symbols): < 100 nM; IC50 [1, 5]: 100 to 1000 nM; IC50 [2, 6]: 100 to 1000 nM; IC50 (SW620 cells (KRAS G12V); [7]): < 100 nM; IC50 [3, 8]: 100 to 1000 nM; IC50 [4, 9]: 100 to 1000 nM"
"CCN(c1nc(OC[C@@]23CCCN2C[C@H](F)C3)nc2c(F)c(-c3ccc(F)c4sc(N)c(C#N)c34)c(C(F)(F)F)cc12)[C@H]1CCN(C(=O)[C@@H]2C[C@H]2F)C1 (atropisomer, axis not shown) [Compound 768]",–,–,–,–,–,–,"IC50 (GP2d cells (KRAS G12D); GP2d, class symbols): < 100 nM; IC50 [1, 5]: < 100 nM; IC50 [2, 6]: < 100 nM; IC50 (SW620 cells (KRAS G12V); [7]): < 100 nM; IC50 [3, 8]: < 100 nM; IC50 [4, 9]: < 100 nM"
N#Cc1c(N)sc2c(F)ccc(-c3c(C(F)(F)F)cc4c(N5CC6CC(C5)O6)nc(OC[C@@]56CCCN5C[C@]5(CC5(F)F)C6)nc4c3F)c12 [Compound 365],< 100 nM,< 100 nM,100 to 1000 nM,100 to 1000 nM,100 to 1000 nM,100 to 1000 nM,–
